TGI data for 13 compounds are collected here from PubChem BioAssay (NCI).

The structures appear in SMILES notation.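 Dose response: 5 concentrations. Exposure: 48 h. Format: 96-well plates. Endpoint: linear interpolation; highest concentration if not reached. Definition used: TGI = concentration required for complete inhibition of growth.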

Some test systems named below: SN12C renal; UO-31 renal; NCI-H23 lung; A549 NSCLC; TK-10 renal; 786-0 renal; RXF 393 renal; HOP-92 NSCLC; NCI-H226 lung; UACC-257 melanoma.
Common to all, as to assay: growth of human tumour cells (NCI), 48 h

Consider `C[C@H](CCc1nc(C#N)c(N)o1)[C@H]1CC[C@H]2[C@@H]3CCC4C[C@@H](O)CC[C@]4(C)[C@H]3C[C@@H](O)[C@]12C` (stereo partly drawn), for which the TGI in the experiment with SN12C renal amounted to 24.6 µM; with UO-31 renal, 16.6 µM; in the experiment on NCI-H23 lung, 32.7 µM; with A549 NSCLC, 23 µM; with TK-10 renal it was 28.6 µM; with 786-0 renal it was 24 µM. The TGI in the experiment with RXF 393 renal came to 24.7 µM; with HOP-92 NSCLC, 28 µM; in the experiment with NCI-H226 lung it was 25.1 µM; with UACC-257 melanoma it was 20.4 µM.

On to `O=C(NNC(=O)c1ccc(Cl)cc1NC(=O)C12CC3CC(CC(C3)C1)C2)c1ccc(Cl)cc1`, for which the TGI in the experiment with SN12C renal is over 100 µM; in the experiment with UO-31 renal, 33.7 µM; in the experiment on NCI-H23 lung, over 100 µM; in the experiment with A549 NSCLC it was 42.8 µM; with TK-10 renal, 57.2 µM; in the experiment with 786-0 renal, 56.1 µM. Besides, the TGI in the experiment on RXF 393 renal amounted to 40.3 µM; in the experiment with HOP-92 NSCLC, 51.9 µM; with NCI-H226 lung it was 65.1 µM; in the experiment with UACC-257 melanoma it was 66.1 µM.

Consider `CSCCC(NC(=O)C(Cc1c[nH]c2ccccc12)NC(=O)CCNC(=O)OC(C)(C)C)C(=O)NC(CC(=O)O)C(=O)NC(Cc1ccccc1)C(N)=O` (stereo not drawn), for which the TGI in the experiment on SN12C renal, with A549 NSCLC, with TK-10 renal, with 786-0 renal, with RXF 393 renal and in the experiment with HOP-92 NSCLC was over 50 µM each time. For the same compound, the TGI with NCI-H226 lung and in the experiment on UACC-257 melanoma was over 50 µM throughout.

`C[C@H](NC(=O)C(C)(Cc1ccc(O)cn1)NC(=O)c1ccccc1)c1ccccc1` (stereo partly drawn): the TGI with SN12C renal, in the experiment on UO-31 renal, with NCI-H23 lung, in the experiment with A549 NSCLC, in the experiment with TK-10 renal and in the experiment with 786-0 renal was over 100 µM each time. Further, the TGI with RXF 393 renal, with HOP-92 NSCLC, in the experiment with NCI-H226 lung and with UACC-257 melanoma was over 100 µM throughout.

For `CC1=NN(c2ccccc2)C(=O)/C1=C\c1c(C)[nH]n(-c2ccccc2)c1=O`, the TGI with SN12C renal, in the experiment with UO-31 renal, in the experiment with NCI-H23 lung, in the experiment on A549 NSCLC, in the experiment on TK-10 renal and in the experiment on 786-0 renal was over 100 µM throughout. Also, the TGI with RXF 393 renal is over 100 µM; in the experiment on HOP-92 NSCLC it was 90.5 µM; in the experiment with NCI-H226 lung, over 100 µM; in the experiment with UACC-257 melanoma, over 100 µM.

On to `COC(=O)c1c(CC(=O)OC(C)C)cc2n(c1=O)Cc1c-2nc2ccccc2c1OC`, for which the TGI in the experiment on SN12C renal, with UO-31 renal, in the experiment with NCI-H23 lung, with A549 NSCLC, with TK-10 renal and in the experiment on 786-0 renal was over 100 µM throughout. The TGI with RXF 393 renal is 99.6 µM; with HOP-92 NSCLC, over 100 µM; in the experiment with NCI-H226 lung, over 100 µM; in the experiment on UACC-257 melanoma, over 100 µM.

`Cc1c(C(=O)O)sc2nc[nH]c(=O)c12`: the TGI in the experiment with SN12C renal, in the experiment with UO-31 renal, with NCI-H23 lung, in the experiment on A549 NSCLC, with TK-10 renal and in the experiment on 786-0 renal was over 100 µM in each case. In addition, the TGI in the experiment with RXF 393 renal, with HOP-92 NSCLC, with NCI-H226 lung and with UACC-257 melanoma was over 100 µM throughout.

Take `COC(=O)[C@@H]1C=CCN1S(=O)(=O)c1ccc(C)cc1`: the TGI in the experiment with SN12C renal, in the experiment with UO-31 renal, in the experiment on NCI-H23 lung, with A549 NSCLC, in the experiment with TK-10 renal and in the experiment on 786-0 renal was over 100 µM in each case. The TGI with RXF 393 renal, in the experiment on HOP-92 NSCLC, in the experiment with NCI-H226 lung and in the experiment on UACC-257 melanoma was over 100 µM in each case.

For `COc1ccc(-c2csc3c2[N+]2(C)C=CC=C2C3N2CCCC2)cc1` (stereo not drawn), the TGI is over 100 µM in the experiment with UO-31 renal; 44.7 µM with NCI-H23 lung; over 100 µM with A549 NSCLC; over 100 µM in the experiment on TK-10 renal; over 100 µM in the experiment with 786-0 renal; over 100 µM with RXF 393 renal. For the same compound, the TGI came out at 75.9 µM in the experiment on HOP-92 NSCLC, 26.5 µM in the experiment on NCI-H226 lung and 93.5 µM in the experiment with UACC-257 melanoma.

In the case of `O=C(CCC(NC(=O)OCc1ccccc1)C(=O)OCc1ccccc1)Nc1cccc(OCc2ccccc2)c1` (stereo not drawn), the TGI is 46 µM in the experiment on SN12C renal; 57.1 µM in the experiment on NCI-H23 lung; over 100 µM in the experiment on A549 NSCLC; 90.3 µM with TK-10 renal; 33.2 µM with 786-0 renal; 46.8 µM in the experiment with RXF 393 renal. Besides, the figures for the TGI in the experiment on HOP-92 NSCLC, in the experiment with NCI-H226 lung and with UACC-257 melanoma were 75 µM, over 100 µM and 55 µM, respectively.

Turning to `c1ccc(C2N=C(c3ccccn3)C(c3ccccn3)=NC2c2ccccc2)cc1` (stereo not drawn), the TGI in the experiment with UO-31 renal, in the experiment with NCI-H23 lung, in the experiment on A549 NSCLC, with TK-10 renal, in the experiment on 786-0 renal and with RXF 393 renal was over 100 µM in each case. The TGI in the experiment on HOP-92 NSCLC, in the experiment with NCI-H226 lung and with UACC-257 melanoma was over 100 µM in each case.

`CN1CCC(O)(OC(=O)C(c2ccccc2)C2(O)CCCC2)CC1` (stereo not drawn): the TGI with SN12C renal, in the experiment on NCI-H23 lung, with A549 NSCLC, with TK-10 renal, with 786-0 renal and in the experiment with RXF 393 renal was over 100 µM each time. For the same compound, the TGI in the experiment with HOP-92 NSCLC, in the experiment on NCI-H226 lung and in the experiment on UACC-257 melanoma was over 100 µM throughout.

Take `Cc1c2oc(=O)c(C#N)cc2c2ccccn12`: the TGI in the experiment with UO-31 renal, with NCI-H23 lung, in the experiment on A549 NSCLC, in the experiment with TK-10 renal, in the experiment on 786-0 renal and in the experiment with RXF 393 renal was over 100 µM in each case. In addition, the TGI with HOP-92 NSCLC, with NCI-H226 lung and in the experiment on UACC-257 melanoma was over 100 µM throughout.
